Broadly, the IC50 is the midpoint of a concentration-inhibition curve. Broadly, the inhibition is the relative decrease from the control value, in per cent.

40 compounds from ChEMBL document CHEMBL4831485, “Design, synthesis and biological evaluation of exiguamine A analogues as IDO1 inhibitors” (Eur J Med Chem, 2021) can be followed below.

Experiment [1] has as its target Indoleamine 2,3-dioxygenase 1 (Homo sapiens, UniProt P14902). The experiment in a line: Inhibition of human N-terminal His-tagged IDO1 expressed in Escherichia coli assessed as formation of N'-formyl-kynurenine using D-tryptophan as a substrate by methylene blue based assay.
The subject of the next experiment is HCT-116. The experiment in a line: Cytotoxicity against human HCT-116 cells assessed as reduction in cell viability measured after 72 hrs by MTT assay. It counts as cell-based. The following applies: HCT-116, 72 h. A general note: Tetrazolium dyes change colour on reduction, which living cells bring about.
Experiment [2] has as its target Tryptophan 2,3-dioxygenase (Homo sapiens) (UniProt P48775). The experiment in a line: Inhibition of human N-terminal His-tagged TDO expressed in Escherichia coli assessed as formation of N'-formyl-kynurenine at 1 uM using D-tryptophan as a substrate by methylene blue based assay relative to control.
For a further experiment, the system named is U-87 MG. The experiment in a line: Cytotoxicity against human U87 cells assessed as reduction in cell viability measured after 72 hrs by MTT assay. Format: cell-based, U-87MG ATCC.
In another experiment the test system is HGC-27. The experiment in a line: Cytotoxicity against human HGC-27 cells assessed as reduction in cell viability measured after 72 hrs by MTT assay. It counts as cell-based. Particulars: HGC-27, 72 h.
In another experiment the test system is HepG2. The experiment in a line: Cytotoxicity against human HepG2 cells assessed as reduction in cell viability measured after 72 hrs by MTT assay. It counts as cell-based. The following applies: HepG2, 72 h.
Another experiment relates to MCF7. The experiment in a line: Cytotoxicity against human MCF7 cells assessed as reduction in cell viability measured after 72 hrs by MTT assay. Format: cell-based. Particulars: MCF7, 72 h.

Indoleamine 2,3-dioxygenase 1, sequence (P14902 whole entry): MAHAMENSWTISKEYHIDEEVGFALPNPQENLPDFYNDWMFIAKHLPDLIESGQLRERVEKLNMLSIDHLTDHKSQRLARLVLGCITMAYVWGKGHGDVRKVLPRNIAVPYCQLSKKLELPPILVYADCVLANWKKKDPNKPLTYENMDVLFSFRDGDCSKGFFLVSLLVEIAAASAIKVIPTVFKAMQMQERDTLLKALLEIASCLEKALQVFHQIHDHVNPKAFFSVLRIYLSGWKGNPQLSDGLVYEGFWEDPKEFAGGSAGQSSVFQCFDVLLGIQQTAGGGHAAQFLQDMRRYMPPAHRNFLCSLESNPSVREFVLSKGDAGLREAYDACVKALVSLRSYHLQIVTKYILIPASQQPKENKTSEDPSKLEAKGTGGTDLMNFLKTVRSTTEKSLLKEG
Tryptophan 2,3-dioxygenase (Homo sapiens), sequence (P48775 whole entry, looked up): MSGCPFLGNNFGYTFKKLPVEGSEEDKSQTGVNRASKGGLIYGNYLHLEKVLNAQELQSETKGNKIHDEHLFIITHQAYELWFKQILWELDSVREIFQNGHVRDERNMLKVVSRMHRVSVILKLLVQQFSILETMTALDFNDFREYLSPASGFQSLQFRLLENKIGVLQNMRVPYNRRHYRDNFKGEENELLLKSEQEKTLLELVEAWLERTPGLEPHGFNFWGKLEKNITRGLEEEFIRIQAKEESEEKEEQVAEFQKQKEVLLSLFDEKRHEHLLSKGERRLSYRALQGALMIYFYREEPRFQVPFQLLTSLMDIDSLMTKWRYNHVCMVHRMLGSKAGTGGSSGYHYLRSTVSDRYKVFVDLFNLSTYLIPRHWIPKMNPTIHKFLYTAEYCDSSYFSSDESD

For `COc1ccc(C)c2c1CC1(C(=O)N(C)C(=O)N1C)C1=C2C(=O)c2[nH]cc(CCNC(=O)OC(C)(C)C)c2C1=O` (stereo not given), the half-maximal inhibitory concentration (IC50) in experiment [1] stood at 0.467 µM.
Still for that read-out and setting: as for `COc1ccc(C)c2c1CC1(C(=O)N(C)C(=O)N1C)C1=C2C(=O)c2[nH]cc(CCNC(=O)c3cc4ccccc4[nH]3)c2C1=O` (stereo not given), the figure is greater than 42 µM.
In the case of `COc1ccc(C)c2c1CC1(C(=O)N(C)C(=O)N1C)C1=C2C(=O)c2[nH]cc(CCNCc3ccccc3Br)c2C1=O` (stereo not given), the IC50 in the experiment on HCT-116 amounted to 1.35 µM; in the experiment with U-87 MG, 1.22 µM; in the experiment on HGC-27, 2.08 µM; in experiment [1] it was 0.0653 µM; with HepG2, 1.56 µM; with MCF7, 1.52 µM. The inhibition in experiment [2] was found to be 0%.
As for `COc1ccc(CC(=O)NCCc2c[nH]c3c2C(=O)C2=C(C3=O)c3c(C)ccc(OC)c3CC23C(=O)N(C)C(=O)N3C)cc1` (stereo not given), in experiment [1], the concentration for half-maximal inhibition (IC50) worked out at 0.33 µM.
Still for that read-out and setting: as for `COc1ccc(C)c2c1CC1(C(=O)N(C)C(=O)N1C)C1=C2C(=O)c2[nH]cc(CCNC(=O)Cc3cccc(C(F)(F)F)c3)c2C1=O` (stereo not given), the figure is 0.441 µM; as for `COc1ccc(C)c2c1CC1(C(=O)N(C)C(=O)N1C)C1=C2C(=O)c2[nH]cc(CCNC(=O)c3ccc(Cl)cc3)c2C1=O` (stereo not given), greater than 42 µM.
Turning to `COc1ccc(C)c2c1CC1(C(=O)N(C)C(=O)N1C)C1=C2C(=O)c2[nH]cc(CCNCc3cc4ccccc4s3)c2C1=O` (stereo not given), the IC50 in experiment [1] was 0.621 µM.
Turning to `COc1ccc(C)c2c1CC1(C(=O)N(C)C(=O)N1C)C1=C2C(=O)c2[nH]cc(CCNC(=O)c3ccccc3)c2C1=O` (stereo not given), the concentration for half-maximal inhibition (IC50) was determined as 1.7 µM with HCT-116; 2.74 µM in the experiment with U-87 MG; 4 µM with HGC-27; 0.21 µM in experiment [1]; 3.53 µM with HepG2; 5.35 µM with MCF7. Moreover, the inhibition in experiment [2] was 0%.
As for `COc1ccc(C)c2c1CC1(C(=O)N(C)C(=O)N1C)C1=C2C(=O)c2[nH]cc(CCNCc3ccc(C(C)(C)C)cc3)c2C1=O` (stereo not given), the IC50 in experiment [1] came out at 0.265 µM.
As for `COc1ccc(C)c2c1CC1(C(=O)N(C)C(=O)N1C)C1=C2C(=O)c2[nH]cc(CCNC(=O)/C=C/c3ccccc3)c2C1=O` (stereo not given), the IC50 in experiment [1] is 0.578 µM.
Still for that read-out and setting: the figure for `COc1ccc(C)c2c1CC1(C(=O)N(C)C(=O)N1C)C1=C2C(=O)c2[nH]cc(CCNCc3ccc4ccccc4c3)c2C1=O` (stereo not given) is 0.271 µM.
As for `COc1ccc(C)c2c1CC1(C(=O)N(C)C(=O)N1C)C1=C2C(=O)c2[nH]cc(CCNC(=O)c3cccs3)c2C1=O` (stereo not given), the concentration for half-maximal inhibition (IC50) in experiment [1] amounted to 0.221 µM.
In the case of `NS(=O)(=O)NCCNc1nonc1/C(=N/O)Nc1ccc(F)c(Br)c1` [EPACADOSTAT], the 50% inhibitory concentration (IC50) with HCT-116, in the experiment on U-87 MG, in the experiment on HGC-27, with HepG2 and in the experiment with MCF7 was greater than 50 µM throughout.
`COc1ccc(C)c2c1CC1(C(=O)N(C)C(=O)N1C)C1=C2C(=O)c2[nH]cc(CCN(C)C)c2C1=O` (stereo not given): the IC50 in the experiment with HCT-116 is greater than 50 µM; in the experiment with U-87 MG, greater than 50 µM; with HGC-27 it was greater than 50 µM; in experiment [1], 0.101 µM; in the experiment with HepG2, greater than 50 µM; in the experiment with MCF7, greater than 50 µM. The inhibition in experiment [2] came out at 0%.
On to `COc1ccc(C)c2c1CC1(C(=O)N(C)C(=O)N1C)C1=C2C(=O)c2[nH]cc(CCNCc3cccc(OC)c3OC)c2C1=O` (stereo not given), for which the concentration for half-maximal inhibition (IC50) in experiment [1] turned out to be 0.248 µM.
Same read-out and setting: as for `COC(=O)c1cccc(CNCCc2c[nH]c3c2C(=O)C2=C(C3=O)c3c(C)ccc(OC)c3CC23C(=O)N(C)C(=O)N3C)c1` (stereo not given), the figure is 0.252 µM; as for `COc1ccc(C)c2c1CC1(C(=O)N(C)C(=O)N1C)C1=C2C(=O)c2[nH]cc(CCNCc3ccc(C(F)(F)F)cc3)c2C1=O` (stereo not given), 0.161 µM; as for `COc1ccc(C)c2c1CC1(C(=O)N(C)C(=O)N1C)C1=C2C(=O)c2[nH]cc(CCNC(=O)c3ccccn3)c2C1=O` (stereo not given), 0.43 µM.
In the case of `COc1ccc(C)c2c1CC1(C(=O)N(C)C(=O)N1C)C1=C2C(=O)c2[nH]cc(CCNCC(C)(C)C)c2C1=O` (stereo not given), the half-maximal inhibitory concentration (IC50) is greater than 50 µM in the experiment on HCT-116; greater than 50 µM with U-87 MG; greater than 50 µM in the experiment on HGC-27; 0.0793 µM in experiment [1]; greater than 50 µM with HepG2; greater than 50 µM in the experiment on MCF7. Moreover, the inhibition in experiment [2] turned out to be 0%.
With `COc1ccc(C)c2c1CC1(C(=O)N(C)C(=O)N1C)C1=C2C(=O)c2[nH]cc(CCNCCc3ccccc3)c2C1=O` (stereo not given), the IC50 in experiment [1] is 0.159 µM.
Consider `COc1ccc(C)c2c1CC1(C(=O)N(C)C(=O)N1C)C1=C2C(=O)c2[nH]cc(CCNCc3ccc(C)c(C)c3)c2C1=O` (stereo not given), for which the IC50 in experiment [1] was determined as 0.234 µM.
As for `COc1ccc(C)c2c1CC1(C(=O)N(C)C(=O)N1C)C1=C2C(=O)c2[nH]cc(CCNC(=O)c3cccc(C(F)(F)F)c3)c2C1=O` (stereo not given), the 50% inhibitory concentration (IC50) in experiment [1] is greater than 42 µM.
For the compound `COc1ccc(C)c2c1CC1(C(=O)N(C)C(=O)N1C)C1=C2C(=O)c2[nH]cc(CCNCc3ccccc3)c2C1=O` (stereo not given), the IC50 in experiment [1] came out at 0.173 µM.
As for `COc1ccc(C(=O)NCCc2c[nH]c3c2C(=O)C2=C(C3=O)c3c(C)ccc(OC)c3CC23C(=O)N(C)C(=O)N3C)cc1` (stereo not given), the half-inhibitory concentration (IC50) in experiment [1] amounted to 2.5 µM.
Still for that read-out and setting: as for `COc1ccc(C)c2c1CC1(C(=O)N(C)C(=O)N1C)C1=C2C(=O)c2[nH]cc(CCNCc3cc(OC)c(OC)c(OC)c3)c2C1=O` (stereo not given), the figure is 0.181 µM.
With `COc1ccc(C)c2c1CC1(C(=O)N(C)C(=O)N1C)C1=C2C(=O)c2[nH]cc(CCNCc3cccs3)c2C1=O` (stereo not given), the half-maximal inhibitory concentration (IC50) in experiment [1] amounted to 0.37 µM.
As to `COc1ccc(C)c2c1CC1(C(=O)N(C)C(=O)N1C)C1=C2C(=O)c2[nH]cc(CCNCc3ccc(-c4ccccc4)cc3)c2C1=O` (stereo not given), the IC50 in experiment [1] is 0.954 µM.
As for `COc1ccc(C)c2c1CC1(C(=O)N(C)C(=O)N1C)C1=C2C(=O)c2[nH]cc(CCNCc3cc(F)cc(F)c3)c2C1=O` (stereo not given), in experiment [1], the 50% inhibitory concentration (IC50) was 0.213 µM.
The same measure, in the same setting: as for `COc1ccc(C)c2c1CC1(C(=O)N(C)C(=O)N1C)C1=C2C(=O)c2[nH]cc(CCNC(=O)c3ccccc3Br)c2C1=O` (stereo not given), the figure is 0.25 µM.
As for `COc1ccc(C)c2c1CC1(C(=O)N(C)C(=O)N1C)C1=C2C(=O)c2[nH]cc(CCNC(=O)c3cc4ccccc4s3)c2C1=O` (stereo not given), in experiment [1], the 50% inhibitory concentration (IC50) is greater than 42 µM.
The same measure, in the same setting: the figure for `COc1ccc(C)c2c1CC1(C(=O)N(C)C(=O)N1C)C1=C2C(=O)c2[nH]cc(CCNC(=O)/C=C/c3cccc(C(F)(F)F)c3)c2C1=O` (stereo not given) is greater than 42 µM; for `COc1ccc(C)c2c1CC1(C(=O)N(C)C(=O)N1C)C1=C2C(=O)c2[nH]cc(CCNC(=O)c3cc4ccccc4o3)c2C1=O` (stereo not given) it is 0.631 µM.
Regarding `COc1ccc(C)c2c1CC1(C(=O)N(C)C(=O)N1C)C1=C2C(=O)c2[nH]cc(CCNCc3cccc(Cl)c3)c2C1=O` (stereo not given), the IC50 with HCT-116 was greater than 50 µM; with U-87 MG, greater than 50 µM; with HGC-27 it was greater than 50 µM; in experiment [1], 0.15 µM; in the experiment with HepG2, greater than 50 µM; in the experiment on MCF7 it was greater than 50 µM. Moreover, the inhibition in experiment [2] amounted to 0%.
Take `COc1ccc(C)c2c1CC1(C(=O)N(C)C(=O)N1C)C1=C2C(=O)c2[nH]cc(CCNC(=O)c3cc(OC)c(OC)c(OC)c3)c2C1=O` (stereo not given): the IC50 in experiment [1] was greater than 42 µM.
Take `COc1ccc(C)c2c1CC1(C(=O)N(C)C(=O)N1C)C1=C2C(=O)c2[nH]cc(CCNC(=O)c3ccc(C(C)C)cc3)c2C1=O` (stereo not given): the half-maximal inhibitory concentration (IC50) in experiment [1] was greater than 42 µM.
Turning to `COc1ccc(C)c2c1CC1(C(=O)N(C)C(=O)N1C)C1=C2C(=O)c2[nH]cc(CCNC(=O)c3ccc4ccccc4n3)c2C1=O` (stereo not given), the IC50 in experiment [1] was greater than 42 µM.
As to `COc1cc(/C=C/C(=O)NCCc2c[nH]c3c2C(=O)C2=C(C3=O)c3c(C)ccc(OC)c3CC23C(=O)N(C)C(=O)N3C)cc(OC)c1` (stereo not given), in experiment [1], the IC50 is greater than 42 µM.
In the case of `COc1ccc(C)c2c1CC1(C(=O)N(C)C(=O)N1C)C1=C2C(=O)c2[nH]cc(CCNCc3ccccc3C)c2C1=O` (stereo not given), the half-maximal inhibitory concentration (IC50) in experiment [1] came to 0.242 µM.
Regarding `COc1ccc(C)c2c1CC1(C(=O)N(C)C(=O)N1C)C1=C2C(=O)c2[nH]cc(CCNC(=O)c3ccc4ccccc4c3)c2C1=O` (stereo not given), the concentration for half-maximal inhibition (IC50) in experiment [1] is greater than 42 µM.
As to `COc1ccc(C)c2c1CC1(C(=O)N(C)C(=O)N1C)C1=C2C(=O)c2[nH]cc(CCNC(=O)c3ccco3)c2C1=O` (stereo not given), the 50% inhibitory concentration (IC50) was found to be 2.15 µM in the experiment on HCT-116; 2.59 µM with U-87 MG; 3.16 µM with HGC-27; 0.209 µM in experiment [1]; 4.18 µM with HepG2; 6.91 µM in the experiment on MCF7. Further, the inhibition in experiment [2] amounted to 0%.
